In the supplement of paper PMC10307832:

Tests used:
Assay in all cases: relative viability (nuclei count vs DMSO), 5 days (fraction); higher = more cells survive
[1] = compound: CC1=NN=C(O1)C2=NN=C(C=C2)N3CCC(CC3)OC4=C(C=CC(=C4)F)Cl + CS(=O)(=O)CCNCc1ccc(-c2ccc3ncnc(Nc4ccc(OCc5cccc(F)c5)c(Cl)c4)c3c2)o1 [Lapatinib] (partner 2 µM)
In short: (§1)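 Relative viability divides the nuclei count in treated wells by that in vehicle wells. Lung cancer cell lines were seeded in 1536-well plates, dosed by pin tool the next day, and fixed and stained after 5 days in one step with final 0.05% Triton X-100, 1% formaldehyde and 1 ug/ml Hoechst. Dosing was a single drug or a fixed anchor-drug dose plus five library-drug doses (not always all listed) in √10 steps, and values are medians of duplicate plates imaged at 4×.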

[2] = compound: CC(C)C[C@@H](C(=O)N[C@H](C(=O)OC1CCCC1)c1ccccc1)[C@H](O)C(=O)NO [Tosedostat] + Cc1nc(Nc2ncc(C(=O)Nc3c(C)cccc3Cl)s2)cc(N2CCN(CCO)CC2)n1 [Dasatinib] (partner 0.075 µM)
In short: as §1

[3] = compound: CC(C)C[C@@H](C(=O)N[C@H](C(=O)OC1CCCC1)c1ccccc1)[C@H](O)C(=O)NO [Tosedostat] + Nc1nc2[nH]cc(CCc3ccc(C(=O)N[C@@H](CCC(=O)O)C(=O)O)cc3)c2c(=O)[nH]1 [Pemetrexed] (partner 0.2 µM)
In short: as §1

[4] = compound: CC(C)C[C@@H](C(=O)N[C@H](C(=O)OC1CCCC1)c1ccccc1)[C@H](O)C(=O)NO [Tosedostat] + C[C@]1(O)C[C@@H](c2nc(-c3ccc4ccc(-c5ccccc5)nc4c3)c3c(N)nccn32)C1 [Linsitinib] (partner 1 µM)
In short: as §1

| Cell Line | relative viability ([1]; first compound 0.8 µM) | relative viability ([1]; first compound 2.53 µM) | relative viability ([1]; first compound 8 µM) | relative viability ([2]; first compound 0.02 µM) | relative viability ([2]; first compound 0.06325 µM) | relative viability ([2]; first compound 0.2 µM) | relative viability ([2]; first compound 0.6325 µM) | relative viability ([2]; first compound 2 µM) | relative viability ([3]; first compound 0.02 µM) | relative viability ([3]; first compound 0.06325 µM) | relative viability ([3]; first compound 0.2 µM) | relative viability ([3]; first compound 0.6325 µM) | relative viability ([3]; first compound 2 µM) | relative viability ([1]; first compound 0.253 µM) | relative viability ([4]; first compound 0.02 µM) | relative viability ([4]; first compound 0.06325 µM) | relative viability ([4]; first compound 0.2 µM) | relative viability ([4]; first compound 0.6325 µM) | relative viability ([4]; first compound 2 µM) |
| --- | --- | --- | --- | --- | --- | --- | --- | --- | --- | --- | --- | --- | --- | --- | --- | --- | --- | --- | --- |
| NCI-H1650 | 0.71 | 0.691 | 0.566 | 0.329 | 0.362 | 0.346 | 0.448 | 0.311 | 0.416 | 0.392 | 0.413 | 0.475 | 0.526 |  |  |  |  |  |  |
| A-427 |  | 0.825 | 0.54 | 0.646 | 0.762 | 0.733 | 0.712 | 0.692 | 0.97 | 1.02 | 0.936 | 0.946 | 0.852 | 0.818 | 1.14 | 1.12 | 1.03 | 1.07 | 1.09 |
| NCI-H650 | 0.833 | 0.839 | 0.851 | 0.471 | 0.49 | 0.424 | 0.422 | 0.388 | 1.01 | 0.846 | 0.895 | 0.873 | 0.804 | 0.999 | 0.853 | 0.84 | 0.679 | 0.656 | 0.494 |
| NCI-H1792 | 0.436 | 0.404 | 0.502 | 0.777 | 0.756 | 0.743 | 0.79 | 0.691 | 0.92 | 0.884 | 0.838 | 0.935 | 0.658 | 0.417 | 0.553 | 0.578 | 0.496 | 0.548 | 0.636 |
| NCI-H2009 | 0.421 | 0.427 | 0.464 | 0.279 | 0.334 | 0.226 | 0.267 | 0.24 | 1.07 | 0.998 | 1.07 | 0.977 | 1.1 | 0.453 | 1.2 | 1.12 | 1.17 | 0.881 | 1.02 |
| Calu-6 | 0.604 | 0.636 | 0.557 |  |  |  |  |  |  |  |  |  |  | 0.65 | 0.979 | 0.942 | 0.907 | 0.848 | 0.647 |
| NCI-H1975 | 0.746 | 0.859 | 0.753 | 0.369 | 0.358 | 0.35 | 0.268 | 0.34 | 0.313 | 0.286 | 0.325 | 0.271 | 0.23 |  | 0.958 | 0.988 | 0.939 | 0.754 | 0.769 |
| LOU-NH91 | 0.7 | 0.717 | 0.687 | 0.6 | 0.584 | 0.568 | 0.51 | 0.42 | 0.394 | 0.478 | 0.447 | 0.487 | 0.444 |  | 0.961 | 0.932 | 0.991 | 0.973 | 0.938 |
| EMC-BAC-2 | 0.843 | 0.854 | 0.647 | 0.317 | 0.356 | 0.343 | 0.371 | 0.311 | 0.453 | 0.463 | 0.582 | 0.626 | 0.655 | 0.837 | 0.822 | 0.792 | 0.794 | 0.837 | 0.82 |
